Consider six molecules from patent publication US10988523B2, “Modified lipidated Relaxin B chain peptides and their therapeutic use” (Sanofi, priority 2018, dated 2021).

SMILES strings stand for the structures. *1 amine or outer side, *2 acyl side, *3 side chain or, on linkers, in order; H or OH if unused. Where a SMILES comes first, the peptide text is derived from it. Side-chain parts run from the residue outwards. [ ]: non-standard residue; d: D form. The star is where a group is joined. αMeW = C[C@](N)(Cc1c[nH]c2ccccc12)C(=O)O; γGlu = O=C(O)[C@H](CCC(=O)[*:2])N[*:1]; Stearoyl = CCCCCCCCCCCCCCCCCC(=O)*; Palmitoyl = CCCCCCCCCCCCCCCC(=O)*; PEG4 = NCCOCCOCCOCCOCCC(=O)O; αMeK = C[C@](N)(CCCCN)C(=O)O; Lauroyl = CCCCCCCCCCCC(=O)*; Nle = CCCC[C@H](N)C(=O)O; AEEA = NCCOCCOCC(=O)O; Aib = CC(C)(N)C(=O)O

The target in one experiment is T1, RXFP1 (Homo sapiens, UniProt Q9HBX9).
T1 construct: OVCAR5 cells expressing endogenous RXFP1; endogenous in cells; host or cells: OVCAR5 cells
T1 sequence (Q9HBX9 1-757): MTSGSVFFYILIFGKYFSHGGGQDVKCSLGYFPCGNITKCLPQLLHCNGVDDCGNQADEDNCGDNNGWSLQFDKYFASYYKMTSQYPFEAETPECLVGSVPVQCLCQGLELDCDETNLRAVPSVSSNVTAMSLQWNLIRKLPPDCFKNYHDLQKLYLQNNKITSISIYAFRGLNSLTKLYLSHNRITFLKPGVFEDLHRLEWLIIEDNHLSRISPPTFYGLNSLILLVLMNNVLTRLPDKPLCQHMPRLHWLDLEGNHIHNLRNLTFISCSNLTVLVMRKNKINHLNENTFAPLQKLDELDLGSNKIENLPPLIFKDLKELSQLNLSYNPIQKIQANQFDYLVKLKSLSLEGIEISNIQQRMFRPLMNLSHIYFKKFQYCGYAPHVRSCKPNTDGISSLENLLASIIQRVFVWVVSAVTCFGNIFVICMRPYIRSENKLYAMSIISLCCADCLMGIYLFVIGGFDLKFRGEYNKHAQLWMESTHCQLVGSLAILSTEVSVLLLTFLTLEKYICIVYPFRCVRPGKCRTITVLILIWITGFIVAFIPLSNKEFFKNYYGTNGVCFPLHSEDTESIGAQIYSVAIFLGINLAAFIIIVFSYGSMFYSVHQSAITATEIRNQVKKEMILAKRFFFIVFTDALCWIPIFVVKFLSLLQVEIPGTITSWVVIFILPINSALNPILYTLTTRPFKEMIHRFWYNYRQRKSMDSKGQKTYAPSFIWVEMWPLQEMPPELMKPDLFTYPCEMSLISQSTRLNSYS
The experiment in a line: OVCAR5 cAMP assay (HTRF), RXFP1 agonist activity. As to conditions: OVCAR5 cells, cAMP HTRF; read-out: EC50 (nM), OVCAR 5 cells (cAMP). The experiment is classed as cell-based. The gist of the method: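 OVCAR5 cells (endogenous RXFP1) pretreated 40 min at 37° C with 1 mM IBMX, then exposed to peptides in serum-free medium for 30 min at 37° C. Lysate cAMP read by HTRF; EC50 from variable-slope sigmoidal fit; Emax as % of H2-relaxin maximal cAMP in same run.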
On the technique in general: Changes in cAMP serve as a functional read-out for many G protein-coupled receptors.
By EC50 is commonly meant the concentration giving half of the maximal effect. In the case of `CCCCCCCCCCCCCCCC(=O)N[C@@H](CCC(=O)N[C@@H](CCC(=O)N[C@@H](CCC(=O)N[C@@H](CCC(=O)NCCCC[C@H](NC(=O)COCCOCCNC(=O)COCCOCCNC(=O)COCCOCCNC(=O)[C@H](CCCCNC(C)=O)NC(=O)[C@H](CCCCN)NC(=O)[C@H](CCCNC(=N)N)NC(=O)[C@](C)(CCCCN)NC(=O)[C@H](CO)NC(=O)[C@](C)(Cc1c[nH]c2ccccc12)NC(=O)[C@@H](NC(=O)[C@H](CO)NC(=O)[C@H](CCCC)NC(=O)CNC(=O)[C@H](CCC(=O)O)NC(=O)C(C)(C)NC(=O)C(C)(C)NC(=O)[C@@H](NC(=O)[C@H](CCCCNC(C)=O)NC(=O)[C@H](C)NC(=O)[C@H](CCCNC(=N)N)NC(=O)[C@@H](NC(=O)[C@H](CCCCN)NC(=O)[C@H](CCC(=O)O)NC(=O)[C@H](CCCNC(=N)N)NC(=O)CNC(=O)[C@H](CCC(=O)O)NC(=O)[C@H](CC(C)C)NC(C)=O)C(C)C)[C@@H](C)CC)[C@@H](C)O)C(N)=O)C(=O)O)C(=O)O)C(=O)O)C(=O)O` [compound 125] (Ac-LEGREKVRAK(Ac)I[Aib][Aib]EG[Nle]ST[αMeW]S[αMeK]RKK(Ac)[AEEA][AEEA][AEEA]K([γGlu-γGlu-γGlu-γGlu-Palmitoyl])-NH2), the concentration giving a half-maximal response (EC50) was 0.1 nM.

The same experiment, now with this note: OVCAR-5; maximal cAMP relative to H2-relaxin maximum (100%); read-out: EMax, OVCAR 5 cells (cAMP).
One may read the Emax as the maximal effect, on the per cent scale that the assay sets. In the case of `CCCCCCCCCCCC(=O)N[C@@H](CCC(=O)N[C@@H](CCC(=O)N[C@@H](CCC(=O)NCCOCCOCC(=O)NCCOCCOCC(=O)NCCOCCOCC(=O)NCCCC[C@H](NC(=O)[C@H](CCCCNC(C)=O)NC(=O)[C@H](CCCCN)NC(=O)[C@H](CCCNC(=N)N)NC(=O)C(C)(C)NC(=O)[C@H](CO)NC(=O)[C@H](Cc1c[nH]c2ccccc12)NC(=O)[C@@H](NC(=O)[C@H](CO)NC(=O)[C@H](CCCC)NC(=O)CNC(=O)[C@H](CCC(=O)O)NC(=O)C(C)(C)NC(=O)C(C)(C)NC(=O)[C@@H](NC(=O)[C@H](CCCCNC(C)=O)NC(=O)[C@H](C)NC(=O)[C@H](CCCNC(=N)N)NC(=O)[C@@H](NC(=O)[C@H](CCCCN)NC(=O)[C@H](CCC(=O)O)NC(=O)[C@H](CCCNC(=N)N)NC(=O)CNC(=O)[C@H](CCC(=O)O)NC(=O)[C@H](CC(C)C)NC(C)=O)C(C)C)[C@@H](C)CC)[C@@H](C)O)C(N)=O)C(=O)O)C(=O)O)C(=O)O` [compound 120] (Ac-LEGREKVRAK(Ac)I[Aib][Aib]EG[Nle]STWS[Aib]RKK(Ac)K([AEEA-AEEA-AEEA-γGlu-γGlu-γGlu-Lauroyl])-NH2), the Emax was determined as 92%. `CCCCCCCCCCCCCCCC(=O)N[C@@H](CCC(=O)NCCCC[C@H](NC(=O)CC[C@H](NC(=O)CC[C@H](NC(=O)COCCOCCNC(=O)COCCOCCNC(=O)COCCOCCNC(=O)COCCOCCNC(=O)[C@H](CCCCNC(C)=O)NC(=O)[C@H](CCCCN)NC(=O)[C@H](CCCNC(=N)N)NC(=O)C(C)(C)NC(=O)[C@H](CO)NC(=O)[C@H](Cc1c[nH]c2ccccc12)NC(=O)[C@@H](NC(=O)[C@H](CO)NC(=O)[C@H](CCCC)NC(=O)CNC(=O)[C@H](CCC(=O)O)NC(=O)C(C)(C)NC(=O)C(C)(C)NC(=O)[C@@H](NC(=O)[C@H](CCC(N)=O)NC(=O)[C@H](C)NC(=O)[C@H](CCCNC(=N)N)NC(=O)[C@@H](NC(=O)[C@H](CCCCN)NC(=O)[C@H](CCC(=O)O)NC(=O)[C@H](CCCNC(=N)N)NC(=O)CNC(=O)[C@H](CCC(=O)O)NC(=O)[C@H](CC(C)C)NC(C)=O)C(C)C)[C@@H](C)CC)[C@@H](C)O)C(=O)O)C(=O)O)C(N)=O)C(=O)O` [compound 121] (Ac-LEGREKVRAQI[Aib][Aib]EG[Nle]STWS[Aib]RKK(Ac)[AEEA][AEEA][AEEA][AEEA][γGlu][γGlu]K([γGlu-Palmitoyl])-NH2): the Emax came out at 91%. `CCCCCCCCCCCCCCCCCC(=O)N[C@@H](CCC(=O)N[C@@H](CCC(=O)N[C@@H](CCC(=O)N[C@@H](CCC(=O)N[C@@H](CCC(=O)NCCCC[C@H](NC(=O)CCOCCOCCOCCOCCNC(=O)CCOCCOCCOCCOCCNC(=O)[C@H](CCCCN)NC(=O)[C@H](CCCCN)NC(=O)[C@H](CCCCN)NC(=O)[C@H](CCCNC(=N)N)NC(=O)C(C)(C)NC(=O)[C@H](CO)NC(=O)[C@H](Cc1c[nH]c2ccccc12)NC(=O)[C@@H](NC(=O)[C@H](CO)NC(=O)[C@H](CCCC)NC(=O)CNC(=O)[C@H](CCC(=O)O)NC(=O)C(C)(C)NC(=O)C(C)(C)NC(=O)[C@@H](NC(=O)[C@H](CCC(N)=O)NC(=O)[C@H](C)NC(=O)[C@H](CCCNC(=N)N)NC(=O)[C@@H](NC(=O)[C@H](CCCCN)NC(=O)[C@H](CCC(=O)O)NC(=O)[C@H](CCCNC(=N)N)NC(=O)CNC(=O)[C@H](CCC(=O)O)NC(=O)[C@H](CC(C)C)NC(C)=O)C(C)C)[C@@H](C)CC)[C@@H](C)O)C(N)=O)C(=O)O)C(=O)O)C(=O)O)C(=O)O)C(=O)O` [compound 122] (Ac-LEGREKVRAQI[Aib][Aib]EG[Nle]STWS[Aib]RKKK[PEG4][PEG4]K([γGlu-γGlu-γGlu-γGlu-γGlu-Stearoyl])-NH2): the Emax worked out at 93%. On the same count and under the same terms, in the case of `CCCCCCCCCCCCCCCCCC(=O)N[C@@H](CCC(=O)N[C@@H](CCC(=O)N[C@@H](CCC(=O)NCCCC[C@H](NC(=O)CCOCCOCCOCCOCCNC(=O)[C@H](CCCCNC(C)=O)NC(=O)[C@H](CCCCN)NC(=O)[C@H](CCCNC(=N)N)NC(=O)C(C)(C)NC(=O)[C@H](CO)NC(=O)[C@H](Cc1c[nH]c2ccccc12)NC(=O)[C@@H](NC(=O)[C@H](CO)NC(=O)[C@H](CCCC)NC(=O)CNC(=O)[C@H](CCC(=O)O)NC(=O)C(C)(C)NC(=O)C(C)(C)NC(=O)[C@@H](NC(=O)[C@H](CCCCNC(C)=O)NC(=O)[C@H](C)NC(=O)[C@H](CCCNC(=N)N)NC(=O)[C@@H](NC(=O)[C@H](CCCCN)NC(=O)[C@H](CCC(=O)O)NC(=O)[C@H](CCCNC(=N)N)NC(=O)CNC(=O)[C@H](CCC(=O)O)NC(=O)[C@H](CC(C)C)NC(C)=O)C(C)C)[C@@H](C)CC)[C@@H](C)O)C(N)=O)C(=O)O)C(=O)O)C(=O)O` [compound 123] (Ac-LEGREKVRAK(Ac)I[Aib][Aib]EG[Nle]STWS[Aib]RKK(Ac)[PEG4]K([γGlu-γGlu-γGlu-Stearoyl])-NH2) it was 88%; in that of `CCCCCCCCCCCCCCCCCC(=O)N[C@@H](CCC(=O)N[C@@H](CCC(=O)N[C@@H](CCC(=O)NCCCC[C@H](NC(=O)CCOCCOCCOCCOCCNC(=O)CCOCCOCCOCCOCCNC(=O)[C@H](CCCCNC(C)=O)NC(=O)[C@H](CCCCN)NC(=O)[C@H](CCCNC(=N)N)NC(=O)C(C)(C)NC(=O)[C@H](CO)NC(=O)[C@H](Cc1c[nH]c2ccccc12)NC(=O)[C@@H](NC(=O)[C@H](CO)NC(=O)[C@H](CCCC)NC(=O)CNC(=O)[C@H](CCC(=O)O)NC(=O)C(C)(C)NC(=O)C(C)(C)NC(=O)[C@@H](NC(=O)[C@H](CCCCNC(C)=O)NC(=O)[C@H](C)NC(=O)[C@H](CCCNC(=N)N)NC(=O)[C@@H](NC(=O)[C@H](CCCCN)NC(=O)[C@H](CCC(=O)O)NC(=O)[C@H](CCCNC(=N)N)NC(=O)CNC(=O)[C@H](CCC(=O)O)NC(=O)[C@H](CC(C)C)NC(C)=O)C(C)C)[C@@H](C)CC)[C@@H](C)O)C(N)=O)C(=O)O)C(=O)O)C(=O)O` [compound 124] (Ac-LEGREKVRAK(Ac)I[Aib][Aib]EG[Nle]STWS[Aib]RKK(Ac)[PEG4][PEG4]K([γGlu-γGlu-γGlu-Stearoyl])-NH2), 88%; in that of `CCCCCCCCCCCCCCCC(=O)N[C@@H](CCC(=O)N[C@@H](CCC(=O)N[C@@H](CCC(=O)N[C@@H](CCC(=O)NCCCC[C@H](NC(=O)COCCOCCNC(=O)COCCOCCNC(=O)COCCOCCNC(=O)[C@H](CCCCNC(C)=O)NC(=O)[C@H](CCCCN)NC(=O)[C@H](CCCNC(=N)N)NC(=O)[C@](C)(CCCCN)NC(=O)[C@H](CO)NC(=O)[C@](C)(Cc1c[nH]c2ccccc12)NC(=O)[C@@H](NC(=O)[C@H](CO)NC(=O)[C@H](CCCC)NC(=O)CNC(=O)[C@H](CCC(=O)O)NC(=O)C(C)(C)NC(=O)C(C)(C)NC(=O)[C@@H](NC(=O)[C@H](CCCCNC(C)=O)NC(=O)[C@H](C)NC(=O)[C@H](CCCNC(=N)N)NC(=O)[C@@H](NC(=O)[C@H](CCCCN)NC(=O)[C@H](CCC(=O)O)NC(=O)[C@H](CCCNC(=N)N)NC(=O)CNC(=O)[C@H](CCC(=O)O)NC(=O)[C@H](CC(C)C)NC(C)=O)C(C)C)[C@@H](C)CC)[C@@H](C)O)C(N)=O)C(=O)O)C(=O)O)C(=O)O)C(=O)O` [compound 125] (Ac-LEGREKVRAK(Ac)I[Aib][Aib]EG[Nle]ST[αMeW]S[αMeK]RKK(Ac)[AEEA][AEEA][AEEA]K([γGlu-γGlu-γGlu-γGlu-Palmitoyl])-NH2), 89%.
